Data as given in ChEMBL document CHEMBL3507680, “University of Dundee, Gates Library screen for HepG2 cell viability”.

Test: Human HepG2 cell viability assay in 384 well format
Type: toxicity, cell-based
Parameters: dose 125 nL, time 70.5 hour; concentration not given beside the values
Settings: HepG2 cells, read-out: Inhibition

O=C(C1CCCO1)N1CCC(n2cc(-c3ccc(F)cc3)nn2)CC1 (stereo not given)
cytotoxicity at 70.5 h: 0.724%

CCc1c(C)nn(CCNC(=O)c2csc(C)n2)c1C
cytotoxicity at 70.5 h: -6.58%

COCCN1CCCC(O)(CN2CCN(c3cc(C)ccn3)CC2)C1=O (stereo not given)
cytotoxicity at 70.5 h: -0.635%

Cc1ccc(N2CCN(C(=O)C3CN(C)C(=O)N3)CC2=O)cc1 (stereo not given)
cytotoxicity at 70.5 h: 3.04%

CSC(C)Cc1c(-c2ccccc2)ncn1CCCNc1cccnc1 (stereo not given)
cytotoxicity at 70.5 h: -0.408%

CNC(=O)[C@@H]1C[C@@H](NC(=O)Cc2nonc2C)CN1Cc1sccc1C
cytotoxicity at 70.5 h: 1.29%

O=C(NC1CCCN(CCc2ccccc2)C1)c1ccccn1 (stereo not given)
cytotoxicity at 70.5 h: -1.94%

NC(=O)c1cnc2n1CCN(C(=O)c1ccc(-c3cc[nH]n3)cc1)C2
cytotoxicity at 70.5 h: -10.3%

CN(Cc1cccnc1)CC1(O)CCCN(CC(C)(C)C)C1=O (stereo not given)
cytotoxicity at 70.5 h: -2.66%

Clc1ccccc1Cc1noc(CN2CCCC(CN3CCCC3)C2)n1 (stereo not given)
cytotoxicity at 70.5 h: -3.9%

O=C(NCc1nc(NC2CCCC2)c2cc(Cl)ccc2n1)c1cscn1
cytotoxicity at 70.5 h: -2.54%

CN(C)c1ccccc1C(=O)N1CCCC(c2cccc(C(=O)O)c2)C1 (stereo not given)
cytotoxicity at 70.5 h: -8.42%

Nc1cc(C(=O)N2C[C@H]3CC[C@@H]2CN(Cc2cccnc2)C3)ccn1
cytotoxicity at 70.5 h: -6.5%

CC(C)CN1C(=O)CC[C@H]2CN(Cc3ncc[nH]3)CC[C@H]21
cytotoxicity at 70.5 h: -3.44%

COc1cccc(C(C(=O)O)N(C)Cc2ccc(C)o2)c1 (stereo not given)
cytotoxicity at 70.5 h: -0.112%

CCc1ccccc1OCCN1C[C@@H](NS(C)(=O)=O)[C@H](C(C)C)C1
cytotoxicity at 70.5 h: -5.69%

O=C(C1CCCO1)N1CCc2onc(-c3ccc(Cl)cc3)c2C1 (stereo not given)
cytotoxicity at 70.5 h: 16.8%

CC(C)Cc1cc(C(=O)NCC(c2ccc(F)cc2)N(C)C)n(C)n1 (stereo not given)
cytotoxicity at 70.5 h: -15.4%

COCCN1C(=O)[C@H]2CC[C@@H]1CN(S(=O)(=O)c1ccc(C#N)cc1)C2
cytotoxicity at 70.5 h: -3.7%

Cc1nc2c(c(=O)n1C)CN(C(=O)C1CCCN(C3CCCC3)C1)C2 (stereo not given)
cytotoxicity at 70.5 h: 6.1%

CCn1c(-c2ccccc2)nn(CC(=O)NCCc2c[nH]cn2)c1=O
cytotoxicity at 70.5 h: 28.4%

CN(C)C(C(=O)N1CCN(C(=O)c2ccc[nH]2)CC1)c1ccc(F)cc1 (stereo not given)
cytotoxicity at 70.5 h: 9.68%

CCCc1nnc(N2CCC(C3CCN(C)CC3)CC2)o1
cytotoxicity at 70.5 h: 9.11%

Cc1nc(-n2cnnc2)ccc1-c1cccc2c1CCNC2
cytotoxicity at 70.5 h: 6.99%

Cc1nc(CCNc2nc(N(C)C)nc3c2CCCC3)cc(=O)[nH]1
cytotoxicity at 70.5 h: -10.9%

CN(C)Cc1nnc(C(=O)N(C)Cc2ccc(C(F)(F)F)cc2)o1
cytotoxicity at 70.5 h: -1.19%

O=C(O)C1c2nc[nH]c2CCN1CC(c1ccccc1)c1ccccc1 (stereo not given)
cytotoxicity at 70.5 h: -3.04%

CN1CC2(CCN(C(=O)c3ccc(-n4cnnc4)cc3Cl)CC2)OC1=O
cytotoxicity at 70.5 h: -4.9%

COc1ccccc1C1CNC(=O)c2nc(-c3nccn3C)[nH]c2C1 (stereo not given)
cytotoxicity at 70.5 h: 5.33%

N[C@H]1CN(S(=O)(=O)c2ccccc2)C[C@@H]1C1CC1
cytotoxicity at 70.5 h: 17.3%

O=C(CCN1C[C@@H]2CC[C@H]1C2)N1CCN(c2cccc(Cl)c2)C(=O)C1
cytotoxicity at 70.5 h: -0.743%

Cc1cc(CNc2ccc(-c3nc(C4CC4)no3)cn2)no1
cytotoxicity at 70.5 h: -4.31%

COc1ccc(F)c(-c2cc(C)nc(N)n2)c1
cytotoxicity at 70.5 h: -7.05%

O=C1CC2(CCN(Cc3ccc(-c4ccccc4)s3)C2)C(=O)N1 (stereo not given)
cytotoxicity at 70.5 h: -3.29%

OC1(CN2CCCC2)CCCN(Cc2cnc(-c3ccco3)nc2)C1 (stereo not given)
cytotoxicity at 70.5 h: 2.98%

COCCC1CCN(CC(C)n2cnc3ccccc32)CC1 (stereo not given)
cytotoxicity at 70.5 h: -17.3%

Cc1nn(C)c(C)c1CCC(=O)N1CC(c2cccnc2)C1
cytotoxicity at 70.5 h: 0.0861%

CC(=O)Nc1ccc(Oc2cccc(CN3CCCC3)c2)cc1
cytotoxicity at 70.5 h: -1.93%

Cc1ccoc1C(=O)N1CCNCC1C(=O)NCc1ccncc1 (stereo not given)
cytotoxicity at 70.5 h: 3.11%

O=C(N[C@H]1CN(C2CCOCC2)C[C@@H]1C1CC1)c1ccon1
cytotoxicity at 70.5 h: -4.68%

O=C(NCc1nc[nH]n1)c1cc(COc2cccc(C(F)(F)F)c2)[nH]n1
cytotoxicity at 70.5 h: 21.3%

c1ccc2c(c1)CCN(c1ncnc3sc4c(c13)CCNC4)C2
cytotoxicity at 70.5 h: -2.21%

CN1CCCC(CCC(=O)N2CCc3sc(C(=O)N(C)C)cc3C2)C1 (stereo not given)
cytotoxicity at 70.5 h: -5.77%

Cn1cc(C(=O)N2CCCN(C3Cc4ccccc4C3)CC2)cn1
cytotoxicity at 70.5 h: -13.8%

CCN(CCO)C(=O)c1cc(Cn2c(C)nc3ccccc32)[nH]n1
cytotoxicity at 70.5 h: -9.25%

Cc1nc(-c2cn(CCN)nn2)n(-c2ccc(C(F)(F)F)cc2)n1
cytotoxicity at 70.5 h: 5.79%

Nc1cc(C(=O)NCC2CCN(CCc3ccccc3)C2)ccn1 (stereo not given)
cytotoxicity at 70.5 h: -6.39%

CNC(=O)[C@@H]1C[C@@H](n2cc(-c3ccc(CN4CC=CC4)cc3)nn2)CN1
cytotoxicity at 70.5 h: -9.45%

Cc1cnc(NCC(C)(C)N2CCOCC2)nc1
cytotoxicity at 70.5 h: -4.82%

COc1cccc(-c2n[nH]cc2C(=O)NC(C)c2nc(C(C)C)no2)c1 (stereo not given)
cytotoxicity at 70.5 h: -8.56%

CC(C)(C)CN1CCCC2(CCN(C(=O)c3ccc(O)nc3)C2)C1 (stereo not given)
cytotoxicity at 70.5 h: -7.83%

Cc1cc(-c2nn(C)c(Cl)c2CN2CCOCC2CC(N)=O)no1 (stereo not given)
cytotoxicity at 70.5 h: 6.65%

CC(=O)NCC1CCN(c2cc(C(C)C)nc3ccnn23)CC1
cytotoxicity at 70.5 h: -9.59%

Cc1cc(C(=O)N2CCOC(c3ccc(Cl)c(Cl)c3)C2)[nH]n1 (stereo not given)
cytotoxicity at 70.5 h: -8.67%

N[C@@H](Cc1c[nH]cn1)C(=O)N1CCC(Oc2ccc(F)cc2)CC1
cytotoxicity at 70.5 h: -4.52%
